In ChEMBL document CHEMBL1909635, “Selectivity of 3'-O-methylponkoranol for inhibition of N- and C-terminal maltase glucoamylase and sucrase isomaltase, potential therapeutics for digestive disorders or their sequelae” (Bioorg Med Chem Lett, 2011):

Assays:
[1] = Inhibition of human recombinant C-terminal subunit of maltase-glucoamylase-N2 by Lineweaver-Burk plot analysis
[2] = biological target: T1, Sucrase-isomaltase, intestinal (Homo sapiens, UniProt P14410); assay: Inhibition of human recombinant N-terminal Sucrase-isomaltase by Lineweaver-Burk plot analysis
[3] = biological target: T1, Sucrase-isomaltase, intestinal; assay: Inhibition of human recombinant C-terminal Sucrase-isomaltase by Lineweaver-Burk plot analysis
[4] = Inhibition of human recombinant C-terminal subunit of maltase-glucoamylase-N20 by Lineweaver-Burk plot analysis
Homo sapiens [5] = organism: Homo sapiens; assay: Selectivity ratio of Ki for human recombinant N-terminal Sucrase-isomaltase to Ki for human recombinant C-terminal Sucrase-isomaltase
Homo sapiens [6] = organism: Homo sapiens; assay: Selectivity ratio of Ki for human recombinant N-terminal maltase-glucoamylase to Ki for human recombinant C-terminal Sucrase-isomaltase
Homo sapiens [7] = organism: Homo sapiens; assay: Selectivity ratio of Ki for human recombinant N-terminal maltase-glucoamylase to Ki for human recombinant C-terminal subunit of maltase-glucoamylase-N20
Homo sapiens [8] = organism: Homo sapiens; assay: Selectivity ratio of Ki for human recombinant N-terminal maltase-glucoamylase to Ki for human recombinant C-terminal subunit of maltase-glucoamylase-N2

T1 sequence (P14410 2-1007 limits assumed): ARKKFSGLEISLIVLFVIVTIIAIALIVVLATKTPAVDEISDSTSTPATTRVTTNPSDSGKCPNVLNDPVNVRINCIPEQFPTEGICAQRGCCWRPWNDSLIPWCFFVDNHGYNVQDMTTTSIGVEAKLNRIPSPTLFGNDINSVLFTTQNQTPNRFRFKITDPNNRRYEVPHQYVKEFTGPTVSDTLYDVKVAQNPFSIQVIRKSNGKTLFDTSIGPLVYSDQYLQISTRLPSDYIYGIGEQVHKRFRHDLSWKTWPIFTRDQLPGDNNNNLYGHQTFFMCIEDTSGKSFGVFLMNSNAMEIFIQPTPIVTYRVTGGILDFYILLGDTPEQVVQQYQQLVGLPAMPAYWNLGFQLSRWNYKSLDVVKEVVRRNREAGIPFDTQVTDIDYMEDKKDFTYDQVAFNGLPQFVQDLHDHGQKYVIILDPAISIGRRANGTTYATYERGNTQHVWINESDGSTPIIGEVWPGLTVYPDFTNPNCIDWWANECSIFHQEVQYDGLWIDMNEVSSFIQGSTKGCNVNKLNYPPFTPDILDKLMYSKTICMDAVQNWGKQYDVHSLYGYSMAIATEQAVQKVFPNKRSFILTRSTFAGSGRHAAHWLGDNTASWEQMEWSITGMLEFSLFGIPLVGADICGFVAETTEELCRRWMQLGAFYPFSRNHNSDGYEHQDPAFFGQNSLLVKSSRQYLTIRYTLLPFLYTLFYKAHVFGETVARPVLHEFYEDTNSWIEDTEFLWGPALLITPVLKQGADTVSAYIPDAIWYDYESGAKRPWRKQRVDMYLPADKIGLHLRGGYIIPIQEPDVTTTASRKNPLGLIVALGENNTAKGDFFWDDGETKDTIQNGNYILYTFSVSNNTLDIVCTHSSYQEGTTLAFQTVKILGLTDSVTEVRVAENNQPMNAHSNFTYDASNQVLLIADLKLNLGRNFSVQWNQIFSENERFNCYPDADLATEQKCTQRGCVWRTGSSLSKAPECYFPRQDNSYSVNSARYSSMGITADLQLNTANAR
T1 sequence (P14410 1008-1827 limits assumed): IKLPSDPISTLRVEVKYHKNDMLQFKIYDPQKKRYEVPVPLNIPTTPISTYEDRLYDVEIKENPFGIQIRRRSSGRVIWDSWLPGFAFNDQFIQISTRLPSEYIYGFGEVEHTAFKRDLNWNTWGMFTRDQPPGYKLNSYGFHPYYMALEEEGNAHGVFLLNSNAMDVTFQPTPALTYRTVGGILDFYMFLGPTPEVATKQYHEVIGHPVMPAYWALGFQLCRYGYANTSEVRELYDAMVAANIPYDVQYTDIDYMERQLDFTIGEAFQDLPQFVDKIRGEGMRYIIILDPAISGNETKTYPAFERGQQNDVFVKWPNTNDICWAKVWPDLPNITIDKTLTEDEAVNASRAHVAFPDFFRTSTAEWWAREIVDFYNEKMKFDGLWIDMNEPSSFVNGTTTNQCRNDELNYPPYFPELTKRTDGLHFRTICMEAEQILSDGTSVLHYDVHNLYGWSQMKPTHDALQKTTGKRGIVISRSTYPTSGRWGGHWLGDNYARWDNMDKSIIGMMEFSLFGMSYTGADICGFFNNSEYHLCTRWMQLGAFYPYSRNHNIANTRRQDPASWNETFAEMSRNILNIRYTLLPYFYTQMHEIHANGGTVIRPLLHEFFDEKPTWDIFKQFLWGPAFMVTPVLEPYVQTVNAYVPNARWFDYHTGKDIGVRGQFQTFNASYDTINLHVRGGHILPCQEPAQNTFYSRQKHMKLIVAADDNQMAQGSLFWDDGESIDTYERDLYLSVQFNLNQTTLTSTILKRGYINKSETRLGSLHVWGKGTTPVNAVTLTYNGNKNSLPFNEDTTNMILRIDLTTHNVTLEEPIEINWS

Ki [1]	Ki [2]	Ki [3]	Ki [4]	Ratio Ki (Homo sapiens [5])	Ki ([1]; read-out: Ki)	Ratio Ki (Homo sapiens [6])	Ratio Ki (Homo sapiens [7])	Ratio Ki (Homo sapiens [8])	Structure (SMILES)
Not Active	0.302 µM	0.103 µM	0.096 µM						OC[C@@H]1[C@@H](O)[C@H](O)C[S@@+]1C[C@@H](O)[C@@H](O)[C@H](O)[C@@H](O)CO.[Cl-] [NEOPONKORANOL]
	0.035 µM	0.007 µM	0.055 µM	5	0.06 µM	70	10	10	CO[C@@H]([C@H](O)[C@@H](O)CO)[C@H](O)C[S@+]1C[C@@H](O)[C@H](O)[C@H]1CO
